# Measured values: ChEMBL document CHEMBL1201862, “PubChem BioAssay data set” (2004)
# The source made the active and inactive calls.
# Experiments:
# [1] = inhibition of ADAM10 peptide cleavage – biochemical, FRET peptide substrate, recombinant human ADAM10, selectivity assay for ADAM17 exosite inhibitor project, dose response (AID 743259);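 further: ADAM10 enzyme cleaving a FRET peptide substrate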
# Major prion protein = Major prion protein (Homo sapiens, UniProt P04156); format: functional, cell-based
# cells [2] = test: cells
# [3] = molecular target: T1, Replicative DNA helicase DnaB (Mycobacterium tuberculosis, UniProt P9WMR3); test: DnaB intein splicing inhibitors, dose response, biochemical, cell-free fluorescence (AID 449749); format: functional
# T1 sequence (P9WMR3 whole entry): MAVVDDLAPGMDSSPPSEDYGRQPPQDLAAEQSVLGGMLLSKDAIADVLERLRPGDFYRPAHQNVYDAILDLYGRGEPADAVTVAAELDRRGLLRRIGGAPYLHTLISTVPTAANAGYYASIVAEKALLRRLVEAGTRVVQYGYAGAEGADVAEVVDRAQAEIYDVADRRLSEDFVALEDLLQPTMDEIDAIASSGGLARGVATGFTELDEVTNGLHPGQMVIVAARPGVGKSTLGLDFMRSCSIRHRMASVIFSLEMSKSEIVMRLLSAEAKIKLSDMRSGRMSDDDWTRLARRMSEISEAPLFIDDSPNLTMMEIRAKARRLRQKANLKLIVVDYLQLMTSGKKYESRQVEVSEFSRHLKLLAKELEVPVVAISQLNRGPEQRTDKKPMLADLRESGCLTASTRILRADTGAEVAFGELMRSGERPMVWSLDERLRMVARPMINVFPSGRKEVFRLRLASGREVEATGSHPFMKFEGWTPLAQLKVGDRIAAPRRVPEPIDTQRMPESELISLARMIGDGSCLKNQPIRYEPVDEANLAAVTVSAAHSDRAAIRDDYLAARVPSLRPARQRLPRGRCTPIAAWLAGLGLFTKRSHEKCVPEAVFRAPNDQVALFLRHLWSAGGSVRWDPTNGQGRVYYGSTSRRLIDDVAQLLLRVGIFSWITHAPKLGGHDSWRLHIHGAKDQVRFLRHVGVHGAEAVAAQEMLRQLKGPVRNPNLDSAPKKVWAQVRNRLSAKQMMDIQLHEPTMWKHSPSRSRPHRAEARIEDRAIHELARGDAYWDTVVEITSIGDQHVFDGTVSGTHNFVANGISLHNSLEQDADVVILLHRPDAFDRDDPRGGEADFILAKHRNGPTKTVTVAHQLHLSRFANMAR
# [4] = molecular target: T2, Apoptotic protease-activating factor 1 (Homo sapiens, UniProt O14727); format: functional
# T2 sequence (O14727 whole entry): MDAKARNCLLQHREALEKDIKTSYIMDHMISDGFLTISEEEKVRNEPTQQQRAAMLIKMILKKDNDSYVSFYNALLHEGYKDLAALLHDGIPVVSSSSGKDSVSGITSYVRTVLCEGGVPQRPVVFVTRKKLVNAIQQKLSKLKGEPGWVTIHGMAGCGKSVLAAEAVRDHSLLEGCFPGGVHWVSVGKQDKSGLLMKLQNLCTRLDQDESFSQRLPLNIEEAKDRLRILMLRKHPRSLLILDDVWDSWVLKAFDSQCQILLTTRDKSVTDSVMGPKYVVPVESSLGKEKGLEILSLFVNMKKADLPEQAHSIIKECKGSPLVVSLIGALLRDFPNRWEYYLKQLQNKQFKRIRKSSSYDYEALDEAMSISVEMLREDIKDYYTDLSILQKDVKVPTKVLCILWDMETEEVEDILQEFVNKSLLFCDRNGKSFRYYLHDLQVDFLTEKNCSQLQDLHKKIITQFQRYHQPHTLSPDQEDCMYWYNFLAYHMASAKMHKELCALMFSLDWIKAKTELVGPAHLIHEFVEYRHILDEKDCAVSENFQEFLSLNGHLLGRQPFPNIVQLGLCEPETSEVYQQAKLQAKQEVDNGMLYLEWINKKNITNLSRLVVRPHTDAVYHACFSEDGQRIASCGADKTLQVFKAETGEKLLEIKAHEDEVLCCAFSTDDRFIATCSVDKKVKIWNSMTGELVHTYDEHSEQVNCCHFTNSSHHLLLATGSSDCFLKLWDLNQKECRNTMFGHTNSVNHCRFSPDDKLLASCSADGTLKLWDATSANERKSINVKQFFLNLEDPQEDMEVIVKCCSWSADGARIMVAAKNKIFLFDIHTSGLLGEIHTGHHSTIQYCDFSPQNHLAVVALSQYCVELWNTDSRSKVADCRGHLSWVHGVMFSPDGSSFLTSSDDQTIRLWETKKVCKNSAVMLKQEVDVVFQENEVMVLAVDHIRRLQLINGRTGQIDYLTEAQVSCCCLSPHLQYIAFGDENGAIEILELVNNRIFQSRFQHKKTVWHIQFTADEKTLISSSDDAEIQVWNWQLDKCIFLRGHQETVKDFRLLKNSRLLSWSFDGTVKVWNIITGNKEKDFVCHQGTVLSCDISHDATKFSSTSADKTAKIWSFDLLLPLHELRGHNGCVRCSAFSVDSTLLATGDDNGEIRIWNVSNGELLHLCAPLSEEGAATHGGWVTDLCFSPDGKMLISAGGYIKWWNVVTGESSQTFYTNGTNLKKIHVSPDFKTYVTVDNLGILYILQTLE
# Protein RecA = molecular target: T3, Protein RecA (Mycobacterium tuberculosis, UniProt P9WHJ3); test: Fluorescence Cell-Free Homogeneous Dose Retest to Identify Inhibitors of RecA-Intein Splicing Activity. [Related pubchem assays (depositor defined):AID2097, AID2223, AID489010, AID492950]; format: functional
# T3 sequence (P9WHJ3 whole entry): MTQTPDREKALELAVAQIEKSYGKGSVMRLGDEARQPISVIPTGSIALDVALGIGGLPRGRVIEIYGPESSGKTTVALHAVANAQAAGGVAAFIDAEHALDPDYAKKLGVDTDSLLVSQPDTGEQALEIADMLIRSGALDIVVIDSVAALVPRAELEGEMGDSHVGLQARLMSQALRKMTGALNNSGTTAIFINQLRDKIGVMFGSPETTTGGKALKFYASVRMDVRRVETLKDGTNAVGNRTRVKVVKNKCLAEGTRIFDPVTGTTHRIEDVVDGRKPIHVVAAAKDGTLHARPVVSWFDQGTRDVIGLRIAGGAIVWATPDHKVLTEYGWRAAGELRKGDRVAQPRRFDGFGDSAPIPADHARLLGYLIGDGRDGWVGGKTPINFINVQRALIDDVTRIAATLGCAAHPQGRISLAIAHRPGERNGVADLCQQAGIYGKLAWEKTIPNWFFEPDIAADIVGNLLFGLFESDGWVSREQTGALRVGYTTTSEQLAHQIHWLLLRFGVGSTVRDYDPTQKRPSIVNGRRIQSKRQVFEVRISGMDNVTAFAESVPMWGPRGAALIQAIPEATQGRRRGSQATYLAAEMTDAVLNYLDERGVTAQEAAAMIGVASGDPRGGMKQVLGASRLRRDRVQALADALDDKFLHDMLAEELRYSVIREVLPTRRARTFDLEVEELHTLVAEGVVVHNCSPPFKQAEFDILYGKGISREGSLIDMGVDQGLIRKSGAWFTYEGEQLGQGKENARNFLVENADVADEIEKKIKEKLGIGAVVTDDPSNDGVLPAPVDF
# Genome polyprotein = Genome polyprotein (dengue virus type 2, UniProt P29990); test: flavivirus cap methylation enzyme inhibition – biochemical, confirmation dose response, primary screen (AID 588689); format: functional
# Sequence of Genome polyprotein (P29990 2492-3391 limits assumed): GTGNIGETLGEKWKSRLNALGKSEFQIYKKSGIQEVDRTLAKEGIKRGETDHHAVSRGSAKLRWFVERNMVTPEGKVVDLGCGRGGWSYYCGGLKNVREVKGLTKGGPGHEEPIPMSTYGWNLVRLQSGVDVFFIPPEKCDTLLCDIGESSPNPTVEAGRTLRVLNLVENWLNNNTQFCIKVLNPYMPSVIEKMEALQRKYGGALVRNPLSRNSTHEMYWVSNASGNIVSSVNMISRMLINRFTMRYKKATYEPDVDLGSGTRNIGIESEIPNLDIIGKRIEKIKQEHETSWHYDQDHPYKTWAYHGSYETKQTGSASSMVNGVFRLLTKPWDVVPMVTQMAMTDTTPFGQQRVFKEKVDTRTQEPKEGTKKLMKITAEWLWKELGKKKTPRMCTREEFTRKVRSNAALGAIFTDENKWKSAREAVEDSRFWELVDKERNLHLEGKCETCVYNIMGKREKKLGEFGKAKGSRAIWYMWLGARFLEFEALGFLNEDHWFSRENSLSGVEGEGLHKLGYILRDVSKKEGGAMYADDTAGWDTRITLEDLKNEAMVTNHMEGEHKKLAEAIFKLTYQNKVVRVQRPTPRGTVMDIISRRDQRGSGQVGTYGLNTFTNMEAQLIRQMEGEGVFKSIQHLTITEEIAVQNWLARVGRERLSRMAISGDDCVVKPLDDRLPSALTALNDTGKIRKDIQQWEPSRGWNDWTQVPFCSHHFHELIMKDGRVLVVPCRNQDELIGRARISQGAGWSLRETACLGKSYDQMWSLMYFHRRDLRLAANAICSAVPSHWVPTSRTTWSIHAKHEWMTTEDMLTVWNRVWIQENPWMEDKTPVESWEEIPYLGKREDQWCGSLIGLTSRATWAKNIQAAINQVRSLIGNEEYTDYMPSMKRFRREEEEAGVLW
# [5] = molecular target: Histone-lysine N-methyltransferase NSD2 (Homo sapiens, UniProt O96028); format: biochemical
# Sequence of Histone-lysine N-methyltransferase NSD2 (O96028 whole entry): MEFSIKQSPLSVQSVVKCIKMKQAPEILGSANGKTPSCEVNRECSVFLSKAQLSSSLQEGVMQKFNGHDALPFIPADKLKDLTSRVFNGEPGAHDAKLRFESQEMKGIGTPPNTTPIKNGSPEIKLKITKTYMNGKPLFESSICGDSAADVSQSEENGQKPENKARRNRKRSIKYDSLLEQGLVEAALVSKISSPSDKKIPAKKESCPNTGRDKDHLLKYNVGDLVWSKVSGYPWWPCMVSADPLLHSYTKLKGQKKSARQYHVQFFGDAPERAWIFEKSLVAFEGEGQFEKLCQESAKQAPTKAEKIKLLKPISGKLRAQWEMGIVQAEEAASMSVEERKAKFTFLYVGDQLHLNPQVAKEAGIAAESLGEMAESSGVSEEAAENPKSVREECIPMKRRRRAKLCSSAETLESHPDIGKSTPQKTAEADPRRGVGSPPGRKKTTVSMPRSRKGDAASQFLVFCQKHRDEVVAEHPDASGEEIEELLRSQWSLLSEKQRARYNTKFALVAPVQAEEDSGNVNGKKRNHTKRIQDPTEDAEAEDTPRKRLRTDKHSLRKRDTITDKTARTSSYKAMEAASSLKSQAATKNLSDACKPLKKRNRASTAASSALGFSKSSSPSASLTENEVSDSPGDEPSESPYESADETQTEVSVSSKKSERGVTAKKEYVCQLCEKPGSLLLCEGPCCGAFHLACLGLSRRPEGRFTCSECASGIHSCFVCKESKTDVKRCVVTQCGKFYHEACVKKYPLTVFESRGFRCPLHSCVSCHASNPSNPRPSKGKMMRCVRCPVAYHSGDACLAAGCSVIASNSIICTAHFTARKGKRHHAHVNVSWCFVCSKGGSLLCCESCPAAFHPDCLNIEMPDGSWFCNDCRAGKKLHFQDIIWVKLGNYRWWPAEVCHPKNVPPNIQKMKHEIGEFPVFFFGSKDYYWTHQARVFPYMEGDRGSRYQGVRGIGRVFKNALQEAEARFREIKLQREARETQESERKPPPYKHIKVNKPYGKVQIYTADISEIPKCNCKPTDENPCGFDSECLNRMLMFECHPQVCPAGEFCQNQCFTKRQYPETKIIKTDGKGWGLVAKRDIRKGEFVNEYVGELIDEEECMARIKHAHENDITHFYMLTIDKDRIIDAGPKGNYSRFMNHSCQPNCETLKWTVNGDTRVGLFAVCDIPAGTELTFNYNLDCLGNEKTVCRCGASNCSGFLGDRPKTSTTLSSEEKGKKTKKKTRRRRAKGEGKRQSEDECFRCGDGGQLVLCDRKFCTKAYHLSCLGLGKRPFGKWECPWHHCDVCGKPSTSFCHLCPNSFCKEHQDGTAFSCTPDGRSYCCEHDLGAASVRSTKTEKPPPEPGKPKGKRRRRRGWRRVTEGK
# [6] = Trypanosoma cruzi growth suppression in host cells – NIH3T3 host cells, beta-gal luminescence, confirmation (AID 2044); format: functional, cell-based;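 further: intracellular parasites grown in NIH/3T3 mouse fibroblasts as host cells; luminescent beta-galactosidase reporter signal from transgenic T. cruzi replicating inside host cells; inhibitors lower the luminescence signal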
# [7] = NIH3T3 cell viability loss – ATP luminescence, mouse fibroblasts, counter-screen, dose response (AID 2010); format: functional, cell-based;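 further: cells exposed to compound for about 90 hours before reading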
# CHO-K1 = test: (§1) Counterscreen for antagonists of the orexin 1 receptor (OX1R; HCRTR1): Homogeneous time resolved fluorescence (HTRF)-based cell-based dose response assay to identify antagonists of the parental CHO-K1 cell line. [Related pubchem assays (depositor defined):AID434989, AID435008, AID463079, AID485270, AID492963, AID492964, AID492965, AID493232, AID504699, AID504701]; format: functional; settings: Cricetulus griseus
# [8] = molecular target: ATP-dependent translocase ABCB1 (Homo sapiens, UniProt P08183); test: inhibition of P-gp mediated JC-1 efflux – Jurkat-DNR cells, flow cytometry, dose response (AID 1689); format: functional
# [9] = as §1, with “Fluorescence-based” for “Homogeneous time resolved fluorescence (HTRF)-based”, “cell-based high throughput” for “cell-based”, “CHO” for “CHO-K1”; format: functional
# [10] = molecular target: T4, Orexin/Hypocretin receptor type 1 (Homo sapiens, UniProt O43613); test: Homogeneous Time Resolved Fluorescence (HTRF)-based cell-based high throughput dose response assay for antagonists of the orexin 1 receptor (OX1R; HCRTR1). [Related pubchem assays (depositor defined):AID434989, AID435008, AID463079, AID485270, AID492963, AID492964, AID492965, AID493232, AID504717, AID504718]; format: functional
# T4 sequence (O43613 whole entry): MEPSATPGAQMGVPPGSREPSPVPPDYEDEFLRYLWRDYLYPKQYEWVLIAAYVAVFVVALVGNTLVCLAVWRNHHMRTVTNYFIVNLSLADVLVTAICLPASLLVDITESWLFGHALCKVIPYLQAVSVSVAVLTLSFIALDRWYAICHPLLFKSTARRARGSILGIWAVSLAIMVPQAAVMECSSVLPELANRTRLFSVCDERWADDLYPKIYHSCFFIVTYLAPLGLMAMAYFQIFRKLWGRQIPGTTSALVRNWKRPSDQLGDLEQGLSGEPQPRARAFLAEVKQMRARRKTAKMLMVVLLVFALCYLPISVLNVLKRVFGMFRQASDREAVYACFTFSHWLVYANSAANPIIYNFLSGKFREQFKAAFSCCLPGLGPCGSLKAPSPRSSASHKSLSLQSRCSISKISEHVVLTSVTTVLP
# [11] = molecular target: T4, Orexin/Hypocretin receptor type 1; test: Fluorescence-based cell-based high throughput dose response assay for antagonists of the orexin 1 receptor (OX1R; HCRTR1). [Related pubchem assays (depositor defined):AID434989, AID435008, AID463079, AID485270, AID492963, AID492964, AID492965, AID493232, AID504717, AID504718]; format: functional
# Orexin receptor type 2 [12] = molecular target: T5, Orexin receptor type 2 (Homo sapiens, UniProt O43614); test: Counterscreen assay for antagonists of the orexin 1 receptor (OX1R; HCRTR1): Fluorescence-based cell-based dose response assay for antagonists of the orexin 2 receptor (OX2R; HCRTR2), run by assay provider.; format: functional
# T5 sequence (O43614 whole entry): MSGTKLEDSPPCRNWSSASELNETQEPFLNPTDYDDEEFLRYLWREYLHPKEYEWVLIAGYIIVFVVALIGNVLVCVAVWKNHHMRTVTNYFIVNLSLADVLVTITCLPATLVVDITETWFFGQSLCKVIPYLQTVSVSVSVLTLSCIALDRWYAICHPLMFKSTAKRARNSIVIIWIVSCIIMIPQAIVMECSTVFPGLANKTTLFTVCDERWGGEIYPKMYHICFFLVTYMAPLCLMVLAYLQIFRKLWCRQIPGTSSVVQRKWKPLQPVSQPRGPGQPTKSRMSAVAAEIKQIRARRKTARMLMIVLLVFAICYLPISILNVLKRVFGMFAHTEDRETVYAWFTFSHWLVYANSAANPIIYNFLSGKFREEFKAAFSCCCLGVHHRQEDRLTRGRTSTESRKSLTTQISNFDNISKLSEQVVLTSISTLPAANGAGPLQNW
# Orexin receptor type 2 [13] = molecular target: T5, Orexin receptor type 2; test: Counterscreen assay for antagonists of the orexin 1 receptor (OX1R; HCRTR1): Homogeneous Time Resolved Fluorescence (HTRF)-based cell-based dose response assay for antagonists of the orexin 2 receptor (OX2R; HCRTR2), run by assay provider.; format: functional
# [14] = molecular target: Broad substrate specificity ATP-binding cassette transporter ABCG2 (Homo sapiens, UniProt Q9UNQ0); test: blockers of JC-1 export by ABCG2 – Ig-MXP3 cells, flow cytometry, dose response (AID 1690); format: functional
# Sequence of Broad substrate specificity ATP-binding cassette transporter ABCG2 (Q9UNQ0 whole entry, the tested form may be a part): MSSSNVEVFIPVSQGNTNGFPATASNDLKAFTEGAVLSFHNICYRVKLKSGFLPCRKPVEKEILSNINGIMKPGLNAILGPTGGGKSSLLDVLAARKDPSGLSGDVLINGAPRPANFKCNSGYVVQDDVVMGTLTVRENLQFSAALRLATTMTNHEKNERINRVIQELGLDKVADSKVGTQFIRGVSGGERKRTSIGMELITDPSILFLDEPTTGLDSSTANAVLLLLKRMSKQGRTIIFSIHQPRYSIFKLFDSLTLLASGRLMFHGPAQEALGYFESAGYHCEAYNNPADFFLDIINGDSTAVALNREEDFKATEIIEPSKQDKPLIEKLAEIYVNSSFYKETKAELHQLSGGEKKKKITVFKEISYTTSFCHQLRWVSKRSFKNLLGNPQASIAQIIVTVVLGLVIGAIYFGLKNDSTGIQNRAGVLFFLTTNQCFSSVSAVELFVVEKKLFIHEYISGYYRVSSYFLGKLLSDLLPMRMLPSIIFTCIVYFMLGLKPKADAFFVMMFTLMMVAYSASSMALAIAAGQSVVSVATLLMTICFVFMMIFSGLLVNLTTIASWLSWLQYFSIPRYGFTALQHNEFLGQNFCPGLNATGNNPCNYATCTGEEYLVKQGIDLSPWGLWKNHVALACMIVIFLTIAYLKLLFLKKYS
# [15] = molecular target: Disintegrin and metalloproteinase domain-containing protein 17 (Homo sapiens, UniProt P78536); test: exosite inhibitors of ADAM17, dose response, biochemical (AID 743260)
# Sequence of Disintegrin and metalloproteinase domain-containing protein 17 (P78536 whole entry, the tested form may be a part): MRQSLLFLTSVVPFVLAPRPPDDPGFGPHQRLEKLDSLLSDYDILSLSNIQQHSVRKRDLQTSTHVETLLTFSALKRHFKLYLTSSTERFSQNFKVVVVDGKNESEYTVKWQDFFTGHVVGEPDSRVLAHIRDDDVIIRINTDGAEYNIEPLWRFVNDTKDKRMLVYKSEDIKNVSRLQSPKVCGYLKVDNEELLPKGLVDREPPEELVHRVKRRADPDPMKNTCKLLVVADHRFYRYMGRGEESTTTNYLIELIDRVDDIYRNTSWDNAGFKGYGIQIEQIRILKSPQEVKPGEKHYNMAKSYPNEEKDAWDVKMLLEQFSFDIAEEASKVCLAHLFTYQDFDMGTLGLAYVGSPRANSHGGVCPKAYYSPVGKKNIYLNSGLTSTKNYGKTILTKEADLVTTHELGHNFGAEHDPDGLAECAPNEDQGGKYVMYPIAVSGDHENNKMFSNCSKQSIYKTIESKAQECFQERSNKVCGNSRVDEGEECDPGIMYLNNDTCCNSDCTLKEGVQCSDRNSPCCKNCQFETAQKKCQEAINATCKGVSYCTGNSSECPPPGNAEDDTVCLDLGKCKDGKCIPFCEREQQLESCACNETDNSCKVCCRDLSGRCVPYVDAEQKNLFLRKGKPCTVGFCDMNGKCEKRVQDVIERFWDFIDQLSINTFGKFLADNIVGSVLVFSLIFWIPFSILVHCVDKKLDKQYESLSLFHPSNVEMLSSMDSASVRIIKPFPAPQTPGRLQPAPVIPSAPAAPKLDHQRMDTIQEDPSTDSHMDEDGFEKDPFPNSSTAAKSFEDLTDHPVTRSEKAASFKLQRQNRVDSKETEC
# Galanin receptor type 3 = Galanin receptor type 3 (Homo sapiens, UniProt O60755); test: Fluorescence-based cell-based primary high throughput dose response assay to identify antagonists of the Galanin Receptor 3 (GalR3).; format: functional
# Sequence of Galanin receptor type 3 (O60755 whole entry): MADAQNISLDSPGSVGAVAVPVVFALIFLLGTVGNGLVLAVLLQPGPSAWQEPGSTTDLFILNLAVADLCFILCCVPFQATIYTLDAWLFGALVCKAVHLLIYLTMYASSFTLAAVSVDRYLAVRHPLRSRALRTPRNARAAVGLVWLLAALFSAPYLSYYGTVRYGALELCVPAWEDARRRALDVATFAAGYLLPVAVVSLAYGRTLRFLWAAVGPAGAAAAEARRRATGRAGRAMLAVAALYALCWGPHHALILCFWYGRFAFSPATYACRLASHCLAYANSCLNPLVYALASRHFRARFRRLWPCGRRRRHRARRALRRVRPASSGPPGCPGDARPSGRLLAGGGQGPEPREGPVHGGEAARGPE
# cells [16] = format: functional, cell-based; settings: HEK-CNG
smiles,measurement,setting,value
Cc1ccc(-n2c(S)nnc2C2CC2c2ccc(Cl)cc2)cc1 (stereo not drawn),IC50,[1],> 69.5 µM (inactive)
Cc1cc(NC(=O)C(C)Sc2nc(-c3cccs3)nc3ccccc23)no1 (stereo not drawn),IC50,Major prion protein,1.7 µM (active)
same,IC50,cells [2],> 138 µM (inactive)
CC(C)(C)c1ccc(S(=O)(=O)/N=C2\C=C(NS(=O)(=O)c3ccccc3)C(=O)c3ccccc32)cc1,AC50,[3],4.68 µM (active)
same,IC50,[4],15 µM (active)
same,EC50,Protein RecA,4.85 µM (active)
same,IC50,Genome polyprotein,25.5 µM (active)
same,AC50,[5],3.73 µM (active)
CCN(CC)P(=O)(Nc1cccc(C(F)(F)F)c1)c1ccc(N(C)C)cc1NC(=O)c1ccco1 (stereo not drawn),EC50,[6],1.3 µM (active)
same,EC50,[7],> 30 µM (not active)
same,IC50,CHO-K1,> 66.2 µM (inactive)
same,EC50,[8],0.998 µM (active)
same,IC50,[9],> 49.8 µM (inactive)
same,IC50,[10],0.184 µM (active)
same,IC50,[11],2.29 µM (active)
same,IC50,Orexin receptor type 2 [12],5 µM (active)
same,IC50,Orexin receptor type 2 [13],> 50 µM (inactive)
same,EC50,[14],2.29 µM (active)
Cc1ccc(-n2c(C3CC3c3ccc(Cl)cc3)n[nH]c2=S)cc1 (stereo not drawn),IC50,[15],> 69.5 µM (inactive)
Cc1ccc(Cc2c(-c3ccco3)nc3c(C)cc(Br)cn23)cc1,IC50,Major prion protein,9.95 µM (active)
same,IC50,cells [2],78.6 µM (inactive)
COc1ccc(C(=O)CSc2nnc(Cn3cnc4ccccc43)o2)cc1,IC50,Galanin receptor type 3,0.891 µM (active)
same,EC50,cells [16],> 29.9 µM (inactive)
